± gives the expanded uncertainty stated by the source.
Test: xn = mol fraction of the nth substance listed
Settings: 101 kPa, Liquid, Vibrating tube method

NCCO [2-aminoethan-1-ol] + c1ccncc1
mass density [kg/m3]
Settings | 288.15 K | 298.15 K | 353.15 K
x2 = 0 | 1019.87 ± 0.2 | 1012.12 ± 0.2 | 968.332 ± 0.2
x2 = 0.01329 | – | 1011.37 ± 0.2 | –
x2 = 0.02208 | 1018.83 ± 0.2 | – | 966.667 ± 0.2
x2 = 0.03932 | 1018.01 ± 0.2 | 1010.09 ± 0.2 | 965.353 ± 0.2
x2 = 0.06973 | 1016.73 ± 0.2 | 1008.71 ± 0.2 | 963.408 ± 0.2
x2 = 0.1369 | 1014.03 ± 0.2 | 1005.81 ± 0.2 | 959.323 ± 0.2
x2 = 0.2147 | 1011.06 ± 0.2 | 1002.59 ± 0.2 | 954.908 ± 0.2
x2 = 0.3455 | 1006.12 ± 0.2 | 997.334 ± 0.2 | 947.883 ± 0.21
x2 = 0.4414 | 1002.7 ± 0.2 | 993.687 ± 0.2 | 943.004 ± 0.21
x2 = 0.5819 | 998.105 ± 0.2 | 988.794 ± 0.2 | 936.439 ± 0.21
x2 = 0.6767 | 995.328 ± 0.2 | 985.804 ± 0.2 | 932.426 ± 0.21
x2 = 0.79 | 992.252 ± 0.2 | 982.566 ± 0.2 | 928.035 ± 0.21
x2 = 0.878 | 990.097 ± 0.2 | 980.237 ± 0.2 | 924.973 ± 0.21
x2 = 0.96 | 988.258 ± 0.2 | – | 922.401 ± 0.21
x2 = 0.9817 | – | 977.805 ± 0.2 | –

CN(CCO)CCO [N-methyldiethanolamine] + c1ccncc1
mass density [kg/m3]
Settings | 288.15 K | 298.15 K | 353.15 K
x2 = 0 | 1046.36 ± 0.21 | 1036.81 ± 0.21 | 994.015 ± 0.2
x2 = 0.01699 | – | – | 992.733 ± 0.2
x2 = 0.04 | – | 1034.22 ± 0.21 | –
x2 = 0.07502 | 1041.45 ± 0.21 | – | 988.525 ± 0.2
x2 = 0.1 | – | 1030.39 ± 0.2 | –
x2 = 0.1844 | 1034.44 ± 0.2 | – | 980.64 ± 0.2
x2 = 0.2183 | – | 1023.03 ± 0.2 | –
x2 = 0.3178 | 1025.81 ± 0.2 | – | 971.05 ± 0.2
x2 = 0.33 | – | 1016.1 ± 0.2 | –
x2 = 0.4447 | 1018 ± 0.2 | – | 961.905 ± 0.2
x2 = 0.5265 | – | 1004.45 ± 0.2 | –
x2 = 0.5708 | 1010.68 ± 0.2 | – | 952.805 ± 0.21
x2 = 0.6 | – | 1000.15 ± 0.2 | –
x2 = 0.6945 | 1003.92 ± 0.2 | – | 943.917 ± 0.21
x2 = 0.7687 | – | 990.603 ± 0.2 | –
x2 = 0.8095 | 997.843 ± 0.2 | – | 935.616 ± 0.21
x2 = 0.8886 | 993.774 ± 0.2 | – | 930.006 ± 0.21
x2 = 0.9059 | – | 983.032 ± 0.2 | –
x2 = 0.9582 | – | 980.414 ± 0.2 | –
x2 = 0.9597 | 990.221 ± 0.2 | – | 924.867 ± 0.21

Cc1ccccc1 [toluene] + CCCCCCC
298.15 K
Settings | mass density [kg/m3]
x2 = 0 | 862.222 ± 0.21
x2 = 0.00177 | 861.767 ± 0.21
x2 = 0.01118 | 859.353 ± 0.21
x2 = 0.0267 | 855.387 ± 0.22
x2 = 0.05849 | 847.515 ± 0.22
x2 = 0.1297 | 830.567 ± 0.22
x2 = 0.2059 | 813.369 ± 0.22
x2 = 0.2752 | 798.596 ± 0.23
x2 = 0.3604 | 781.402 ± 0.23
x2 = 0.4494 | 764.554 ± 0.23
x2 = 0.4718 | 760.485 ± 0.24
x2 = 0.6659 | 727.559 ± 0.25
x2 = 0.8166 | 704.661 ± 0.25
x2 = 0.9094 | 691.588 ± 0.26
x2 = 0.9624 | 684.471 ± 0.26
x2 = 0.9968 | 679.955 ± 0.26

Reference: the NIST ThermoML archive (doi:10.1021/je400184t)
